What was measured:
[1] = tested on: TREM-1; test: Monkey model of endotoxin (LPS) infusion: blood pressure monitoring; assay type: in vivo, cynomolgus monkey (Macaca fascicularis)
Description: Male cynomolgus monkeys (Macaca fascicularis) (2.8 to 3.5 kg, 24 months old, Le Tamarinier, La Route Royale, Tamarin, Mauritius) were used. Animals were fasted the day before LPS challenge but with full access to water. CIToxLAB France Ethical Committee (CEC) reviewed and approved all study plans (Nr CEC: 02221).
Vital signs and weight were recorded the day before LPS challenge. The next morning, baseline clinical laboratory samples were collected, and a baseline set of vital signs was recorded. The drug was administered into the cephalic or saphenous vein via a Teflon catheter. Contralateral vein was used for LPS administration.
Monkeys were randomized to receive LR12 or placebo (n=6 per group). An additional group of 4 was constituted to only receive vehicle (NaCl 0.9%) infusion and served as the control group.
At time point 0, a 15 mins intravenous infusion of LR12 or placebo solution was begun, at the rate of 12 mL/h (5 mg/kg, 10 mins, 2 mL), delivered by a calibrated syringe pump (Harvard Apparatus). A continuous infusion was then administered for further 8 hours at the rate of 2 mL/h (1 mg/kg/h, 8 hours, 16 mL). Just before treatment infusion, an intravenous bolus of LPS (10 μg/kg) was administered over the course of a 10 mins period into the contralateral catheter. Animals remained awake in an upright position in a restraint chairs and continued to fast from food for the whole study duration.
Pulse rate, and blood pressure were monitored every 15 mins for 1 hour, then every 30 mins for 7 hours.

[2] = target: T1, TREM-1 (Mus musculus, UniProt Q9JKE2); test: Mouse model of myocardial infarction, survival; assay type: in vivo; settings: 100 μg daily for 5 days i.p., beginning 60 min after ligation; Log-Rank p<0.01
T1 construct: endogenous in cells; host or cells: living mice (C57BL, Balb/c, ApoE-/-), in vivo
T1 sequence (Q9JKE2 21-230): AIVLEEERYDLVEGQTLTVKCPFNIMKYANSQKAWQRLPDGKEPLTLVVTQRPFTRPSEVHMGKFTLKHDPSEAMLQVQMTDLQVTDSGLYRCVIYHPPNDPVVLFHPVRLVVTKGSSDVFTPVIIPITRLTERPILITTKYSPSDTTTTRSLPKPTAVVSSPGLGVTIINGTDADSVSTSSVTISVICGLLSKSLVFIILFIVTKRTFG
Description: Adult male Balb/c mice (20-23 g) were subjected to myocardial ischemia and were randomly grouped (n=10-15 per group) to receive repeated TREM-1- and TLT-1-derived peptides (100 μg in 0.2 mL NaCl 0.9% once a day for 5 days), scrambled-LR12 (100 μg in 0.2 mL NaCl 0.9% once a day for 5 days), or 10 μg anti-TREM-1 mAb in 0.2 mL NaCl 0.9% i.p. injections. Survival was monitored over 1 wk and analyzed by Log Rank test. (There were no deaths after the 5th day). Data are representative of at least 15 different experiments.
All procedures were performed on mice male C57BL/C ranging in age from 6-8 weeks. Mice were anesthetized by an intraperitoneal injection of xylazine (60 mg/kg) and fixed in supine position. The trachea was intubated and ventilated (the tidal volume was 200 μl/25 g and the respiratory rate was 120 breaths/min). After a left thoracotomy, the left coronary artery was identified and ligated with an 8-0 prolene surgical suture at 1.0 mm distal from tip of the left auricle. LAD occlusion was confirmed by a change in myocardial color from red to white in the ischemia area (Left ventricle). The chest was closed and the skin was sutured with 6-0 silk. […]
Mice were monitored after surgery for mortality. Mice were randomized to receive or not peptides (daily ip injection for 5 days, 5 mg/kg) and monitored for survival. […]

[3] = target: T1, TREM-1; test: Atherosclerosis in ApoE-/- mouse on fat diet; assay type: in vivo; settings: apoE-/- mice, daily i.p. 100 μg/day, 4 weeks; vehicle 146736
Description: 12-week old male ApoE−/− mice were put on a fat diet (lipids 15%, cholesterol 1.25%, no cholate) and were treated by daily intraperitoneal injection of peptides (100 μg/day) or PBS. After 4 weeks of fat diet, mice were sacrificed for analysis.
Atherosclerotic plaques were stained using Red Oil and quantified in the aortic sinus. Using immunofluorescent staining and immunohistochemistry, we analyzed plaque composition. Finally, we explored the effects of peptide's treatment on monocyte recruitment in the atherosclerotic plaques using the pulse staining technique developed by Potteaux et al. Briefly, monocytes were labelled in vivo by retro-orbital i.v. injection of 1 μm Fluoresbrite green fluorescent plain microspheres diluted 1:4 in sterile PBS [Potteaux et al, 2011]. Fluorescent beads count in the lesions reflects monocyte recruitment.

With “LQEEDAGEYGCM (listed as Homo sapiens) [TLT1-LR12]” the “arterial pressure / hypotension after LPS challenge” value ([1]; LPS 10 μg/kg) was “never went hypotensive”, the “Heart rate after LPS injection” value ([1]; LPS 10 μg/kg, 5 mg/kg then 1 mg/kg/h for 8 hours i.v.) was “no effects” and the “body temperature increase after LPS, difference between placebo (LR12scr) and LR12-treated animals” value ([1]; between H1 and H2) was “not significant”. For the same sequence, the “survival after permanent coronary artery ligation” value [2] was “All but 1 LR12-treated animals survived” and the “atherosclerotic lesion size in the aortic sinus (Red Oil staining)” value [3] was 103318 μm^2.

— patent publication US9657081B2, “Inhibiting peptides derived from triggering receptor expressed on myeloid cells-1 (TREM-1) TREM-like transcript 1 (TLT-1) for treatment of cardiovascular diseases” (INSERM (Institut National de la Sante et de la Recherche …, priority 2013, dated 2017)
